Laboratory results taken from patent US20240174624A1, “CHIRAL N-(1,3,4-OXADIAZOLE-2-YL)PHENYL CARBOXYLIC ACID AMIDES AND THEIR USE AS HERBICIDES” (Bayer Aktiengesellschaft, priority 2021, published 2024).

Legend:
AVEFA [1] = assay: Pre-emergence herbicidal action; type: in vivo, Avena fatua; details: 80 g/ha, scored after 3 weeks
Procedure, shortened: (§1)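 Visual % damage relative to untreated controls after 3 weeks in the greenhouse (100% = plants died). Compounds, as WP or EC, were sprayed pre-emergence onto soil covering seeds sown in sandy loam, at a water rate of 600 to 800 l/ha plus 0.2% wetting agent.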

AMARE [2] = assay: Pre-emergence herbicidal action; type: in vivo, Amaranthus retroflexus; details: scored after 3 weeks
Procedure, shortened: (§2)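 Weed and crop seeds were sown in sandy loam, and WP or EC formulations were sprayed onto the covering soil at 600 to 800 l/ha water with 0.2% wetting agent. After 3 weeks in a greenhouse, damage was scored visually against untreated controls as percent activity (100% = plants dead).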

MATIN [3] = assay: Post-emergence herbicidal action; type: in vivo, Matricaria inodora; details: assessed after about 3 weeks
Procedure, shortened: (§3)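 Greenhouse plants in sandy loam treated at the one-leaf stage, 2–3 weeks after sowing, by spraying WP or EC formulations as aqueous suspension/emulsion at 600–800 l/ha with 0.2% wetting agent. Visual assessment after about 3 weeks versus untreated controls, as percent action (100% = plants dead, 0% = like control).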

ORYZA [4] = assay: Pre-emergence damage to crop plants; type: in vivo, Oryza sativa; details: 80 g a.i./ha, comparative experiment
Description: (§4) Seeds of monocotyledonous and dicotyledonous weed plants and crop plants are laid out in sandy loam soil in wood-fibre pots and covered with soil. The compounds of the invention, formulated in the form of wettable powders (WP) or as emulsion concentrates (EC), are then applied to the surface of the covering soil in the form of an aqueous suspension or emulsion at a water application rate equivalent to 600 to 800 l/ha, with addition of 0.2% wetting agent. After the treatment, the pots are placed in a greenhouse and kept under good growth conditions for the trial plants. The damage to the test plants is scored visually after a test period of 3 weeks by comparison with untreated controls (herbicidal activity in percent (%): 100% activity=the plants have died, 0% activity=like control plants). […] The tables below illustrate, in an illustrative manner, the post-emergence herbicidal action of the compounds of the invention, the herbicidal activity being stated in percent. In the experiments that follow, the herbicidal action of the compounds of the invention and that of the corresponding known racemic compounds closest from WO2012126932 and WO2018202535 were compared under the above-specified conditions by the pre-emergence and post-emergence method. The example numbers given in the tables relate to the compounds disclosed in the respective documents.

PHBPU [5] = assay: Pre-emergence herbicidal action; type: in vivo, Pharbitis purpurea; details: 80 g/ha, scored after 3 weeks
Description: as §4, with “percent.” for “percent. In the experiments that follow, the herbicidal action of the compounds of the invention and that of the corresponding known racemic compounds closest from WO2012126932 and WO2018202535 were compared under the above-specified conditions by the pre-emergence and post-emergence method. The example numbers given in the tables relate to the compounds disclosed in the respective documents.”

POLCO [6] = assay: Post-emergence herbicidal action; type: in vivo, Polygonum convolvulus; details: 20 g/ha, assessed after about 3 weeks
Protocol: (§5) Seeds of monocotyledonous and dicotyledonous weed and crop plants are laid out in sandy loam soil in wood-fibre pots, covered with soil and cultivated in a greenhouse under good growth conditions. 2 to 3 weeks after sowing, the test plants are treated at the one-leaf stage. The compounds of the invention, formulated in the form of wettable powders (WP) or as emulsion concentrates (EC), are then sprayed onto the green parts of the plants in the form of an aqueous suspension or emulsion at a water application rate equating to 600 to 800 l/ha, with addition of 0.2% wetting agent. After the test plants have been left to stand in the greenhouse under optimal growth conditions for about 3 weeks, the action of the preparations is assessed visually in comparison to untreated controls (herbicidal action in percent (%): 100% activity=the plants have died, 0% activity=like control plants). […] The tables below illustrate, in an illustrative manner, the post-emergence herbicidal action of the compounds of the invention, the herbicidal activity being stated in percent.

TRZAS [7] = assay: Pre-emergence damage to crop plants; type: in vivo, Triticum aestiva; details: 80 g a.i./ha, comparative experiment
Description: as §4

ORYZA [8] = assay: Post-emergence damage to crop plants; type: in vivo, Oryza sativa; details: 80 g a.i./ha, comparative experiment
Protocol: as §5, with “percent. In the experiments that follow, the herbicidal action of the compounds of the invention and that of the corresponding known racemic compounds closest from WO2012126932 and WO2018202535 were compared under the above-specified conditions by the pre-emergence and post-emergence method. The example numbers given in the tables relate to the compounds disclosed in the respective documents.” for “percent.”

AVEFA [9] = assay: Post-emergence herbicidal action; type: in vivo, Avena fatua; details: 20 g/ha, assessed after about 3 weeks
Protocol: as §5

PHBPU [10] = assay: Post-emergence herbicidal action; type: in vivo, Pharbitis purpurea; details: assessed after about 3 weeks
Procedure, shortened: as §3

ALOMY = assay: Pre-emergence herbicidal action; type: in vivo, Alopecurus myosuroides; details: 80 g/ha, scored after 3 weeks
Procedure, shortened: as §1

VIOTR [11] = assay: Pre-emergence herbicidal action; type: in vivo, Viola tricolor; details: scored after 3 weeks
Procedure, shortened: as §2

ZEAMX [12] = assay: Pre-emergence damage to crop plants; type: in vivo, Zea mays; details: 320 g a.i./ha, comparative experiment
Procedure, shortened: as §1

VIOTR [13] = assay: Post-emergence herbicidal action; type: in vivo, Viola tricolor; details: assessed after about 3 weeks
Procedure, shortened: (§6)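 Plants grown from seed in sandy loam in the greenhouse were sprayed at the one-leaf stage, 2 to 3 weeks after sowing, with WP or EC formulations as aqueous suspension or emulsion at 600 to 800 l/ha plus 0.2% wetting agent. Damage was scored visually after about 3 weeks versus untreated controls (0% = like control, 100% = plants dead).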

SETVI [14] = assay: Pre-emergence herbicidal action; type: in vivo, Setaria viridis; details: scored after 3 weeks
Procedure, shortened: as §1

ZEAMX [15] = assay: Post-emergence damage to crop plants; type: in vivo, Zea mays; details: 80 g a.i./ha, comparative experiment
Protocol: as §5, with “percent. In the experiments that follow, the herbicidal action of the compounds of the invention and that of the corresponding known racemic compounds closest from WO2012126932 and WO2018202535 were compared under the above-specified conditions by the pre-emergence and post-emergence method. The example numbers given in the tables relate to the compounds disclosed in the respective documents.” for “percent.”

AMARE [16] = assay: Post-emergence herbicidal action; type: in vivo, Amaranthus retroflexus; details: assessed after about 3 weeks
Procedure, shortened: as §3

ECHCG [17] = assay: Pre-emergence herbicidal action; type: in vivo, Echinochloa crus-galli; details: scored after 3 weeks
Procedure, shortened: as §2

ECHCG [18] = assay: Post-emergence herbicidal action; type: in vivo, Echinochloa crus-galli; details: assessed after about 3 weeks
Procedure, shortened: as §6

VERPE = assay: Post-emergence herbicidal action; type: in vivo, Veronica persica; details: 20 g/ha, assessed after about 3 weeks
Procedure, shortened: as §6

SETVI [19] = assay: Post-emergence herbicidal action; type: in vivo, Setaria viridis; details: assessed after about 3 weeks
Procedure, shortened: as §6

MATIN [20] = assay: Pre-emergence herbicidal action; type: in vivo, Matricaria inodora; details: scored after 3 weeks
Procedure, shortened: as §1

TRZAS [21] = assay: Post-emergence damage to crop plants; type: in vivo, Triticum aestiva; details: 80 g a.i./ha, comparative experiment
Procedure, shortened: as §6

POLCO [22] = assay: Pre-emergence herbicidal action; type: in vivo, Polygonum convolvulus; details: 80 g/ha, scored after 3 weeks
Procedure, shortened: as §1

For `C[S+]([O-])c1c(C(F)(F)F)ccc(C(=O)Nc2nnco2)c1Cl` (stereo in doubt) [Example I-1, 2-chloro-N-(1,3,4-oxadiazol-2-yl)-3-[(S)-methylsulfinyl]-4-(trifluoromethyl)benzamide], the “Pre-emergence action against AVEFA” value (AVEFA [1]) was 80%, the “Pre-emergence action against AMARE” value (AMARE [2]; 20 g/ha) was 100% and the “Pre-emergence action against AMARE” value (AMARE [2]; 80 g/ha) was 100%. For the same compound, the “Post-emergence action against MATIN” value (MATIN [3]; 5 g/ha) was 80%, the “Post-emergence action against MATIN” value (MATIN [3]; 20 g/ha) was 90% and the “Damage to ORYZA” value (ORYZA [4]) was 80%. The “Pre-emergence action against PHBPU” value (PHBPU [5]) was 100%, the “Post-emergence action against POLCO” value (POLCO [6]) was 80% and the “Damage to TRZAS” value (TRZAS [7]) was 30%. The “Damage to ORYZA” value (ORYZA [8]) was 70%, the “Post-emergence action against AVEFA” value (AVEFA [9]) was 80% and the “Post-emergence action against PHBPU” value (PHBPU [10]; 5 g/ha) was 100%. The “Post-emergence action against PHBPU” value (PHBPU [10]; 20 g/ha) was 100%, the “Pre-emergence action against ALOMY” value (ALOMY) was 80% and the “Pre-emergence action against VIOTR” value (VIOTR [11]; 20 g/ha) was 100%. The “Pre-emergence action against VIOTR” value (VIOTR [11]; 80 g/ha) was 100%, the “Damage to ZEAMX” value (ZEAMX [12]) was 0% and the “Post-emergence action against VIOTR” value (VIOTR [13]; 1.25 g/ha) was 90%. The “Post-emergence action against VIOTR” value (VIOTR [13]; 5 g/ha) was 100%, the “Post-emergence action against VIOTR” value (VIOTR [13]; 20 g/ha) was 100% and the “Pre-emergence action against SETVI” value (SETVI [14]; 20 g/ha) was 80%. The “Pre-emergence action against SETVI” value (SETVI [14]; 80 g/ha) was 100%, the “Damage to ZEAMX” value (ZEAMX [15]) was 0% and the “Post-emergence action against AMARE” value (AMARE [16]; 1.25 g/ha) was 100%. The “Post-emergence action against AMARE” value (AMARE [16]; 5 g/ha) was 100%, the “Post-emergence action against AMARE” value (AMARE [16]; 20 g/ha) was 100% and the “Pre-emergence action against ECHCG” value (ECHCG [17]; 5 g/ha) was 90%. For the same compound, the “Pre-emergence action against ECHCG” value (ECHCG [17]; 20 g/ha) was 100%, the “Pre-emergence action against ECHCG” value (ECHCG [17]; 80 g/ha) was 100% and the “Post-emergence action against ECHCG” value (ECHCG [18]; 5 g/ha) was 100%. For the same compound, the “Post-emergence action against ECHCG” value (ECHCG [18]; 20 g/ha) was 100%, the “Post-emergence action against VERPE” value (VERPE) was 90% and the “Post-emergence action against SETVI” value (SETVI [19]; 5 g/ha) was 80%. The “Post-emergence action against SETVI” value (SETVI [19]; 20 g/ha) was 100%, the “Pre-emergence action against MATIN” value (MATIN [20]; 20 g/ha) was 100% and the “Pre-emergence action against MATIN” value (MATIN [20]; 80 g/ha) was 100%. The “Damage to TRZAS” value (TRZAS [21]) was 60% and the “Pre-emergence action against POLCO” value (POLCO [22]) was 80%.
